Experimental data from patent publication US8158580B2, “Pharmaceutical compositions containing a glycopeptide antibiotic and a cyclodextrin” (Theravance, Inc., priority 2000, dated 2012).
Where two headings read alike, the source gives them in different places.

Settings: female rats; for BUN / Creatinine: 50 mg/kg intravenous infusion, serum at 24 hours; for % Recovered (as unchanged parent) Kidney / % Recovered (as unchanged parent) Liver / % Recovered (as unchanged parent) Urine / Serum Conc.: 2-minute intravenous infusion, 24 hours, Mean (SD)
Method: Female Sprague-Dawley rates (three per group) were dosed with Compound A (50 mg/kg) formulated in either hydroxypropyl-β-cyclodextrin or 5% dextrose/water or vehicle. The indicated doses were administered in a volume of 10 mL/kg via a 2-minute intravenous infusion. At 24 hours, the animals were sacrificed and serum and tissue samples collected.

[1] = formulation 1% (w/v) CD (hydroxypropyl-β-cyclodextrin)
[2] = formulation 1% CD (hydroxypropyl-β-cyclodextrin), 50 mg/kg
[3] = formulation 5% (w/v) CD (hydroxypropyl-β-cyclodextrin)
[4] = formulation 5% CD (hydroxypropyl-β-cyclodextrin), 50 mg/kg
[5] = formulation 25% (w/v) CD (hydroxypropyl-β-cyclodextrin)
[6] = formulation 25% CD (hydroxypropyl-β-cyclodextrin), 50 mg/kg
[7] = formulation D5W (aqueous 5% dextrose solution, no cyclodextrin)
[8] = formulation D5W (aqueous 5% dextrose solution, no cyclodextrin), 50 mg/kg
[9] = formulations containing a cyclodextrin compared with formulation without, 50 mg/kg

## CCCCCCCCCCNCCNC1(C)CC(OC2C(Oc3c4cc5cc3Oc3ccc(cc3Cl)C(O)C3NC(=O)C(NC(=O)C5NC(=O)C(CC(N)=O)NC(=O)C(NC(=O)C(CC(C)C)NC)C(O)c5ccc(c(Cl)c5)O4)c4ccc(O)c(c4)-c4c(cc(O)c(CNCP(=O)(O)O)c4O)C(C(=O)O)NC3=O)OC(CO)C(O)C2O)OC(C)C1O (centres unmarked) [Compound A]
[1]
  BUN: 26 ± 5 mg/dL
  Creatinine: 0.34 ± 0.08 mg/dL
[2]
  % Recovered (as unchanged parent) Kidney: 5.68 (2.49) %
  % Recovered (as unchanged parent) Liver: 8.47 (0.46) %
  % Recovered (as unchanged parent) Urine: 17.45 (6.92) %
  Serum Conc.: 17.1 (12.1) μg/mL
[3]
  BUN: 18 ± 5 mg/dL
  Creatinine: 0.31 ± 0.07 mg/dL
[4]
  % Recovered (as unchanged parent) Kidney: 2.08 (0.43) %
  % Recovered (as unchanged parent) Liver: 4.89 (0.81) %
  % Recovered (as unchanged parent) Urine: 40.51 (18.57) %
  Serum Conc.: 1.66 (0.33) μg/mL
[5]
  BUN: 13 ± 2 mg/dL
  Creatinine: 0.26 ± 0.02 mg/dL
[6]
  % Recovered (as unchanged parent) Kidney: 0.62 (0.12) %
  % Recovered (as unchanged parent) Liver: 1.90 (0.32) %
  % Recovered (as unchanged parent) Urine: 90.91 (8.39) %
  Serum Conc.: 0.86 (0.19) μg/mL
[7]
  BUN: 67 ± 2 mg/dL
  Creatinine: 0.72 ± 0.08 mg/dL
[8]
  % Recovered (as unchanged parent) Kidney: 17.82 (4.94) %
  % Recovered (as unchanged parent) Liver: 14.19 (3.41) %
  % Recovered (as unchanged parent) Urine: 12.61 (4.60) %
  Serum Conc.: 59.8 (27.1) μg/mL
[9]
  liver and kidney accumulation: significantly lower
  urinary recovery: significantly higher
